Compared with `COc1cc2c(cc1[N+](=O)[O-])-c1c(-c3cccs3)c3c(n1CC2)C(=O)N(C(C)(C)C)CCC3`, `COc1cc2c(c3c1OC(C)(C)C3)C(c1ccc(=O)n(-c3ccc4ccccc4n3)c1)=NC(C)(C)C2` is lower in melting point: 279 to 280 °C for the first, 191 to 192 °C for the second.

First: COc1ccc(COc2ncccc2C(=O)O)cc1OC1CC2CCC1C2 (stereo unspecified)
Second: COc1ccccc1Oc1cccc(CC(=O)O)c1O
The melting point of the first is lower: 50 °C for the first, 125 to 126 °C for the second.

First: Nc1ccc(-c2cn(CCF)nn2)cc1
Second: CCOC(=O)CCc1nc(-c2ccc(Cl)cc2)co1
The melting point of the first is higher: 79 to 82 °C for the first, 65 to 66 °C for the second.

`CC12CCC3C(CC=C4CCCCC43C)C1CC(O)C2=O` (stereo unspecified) and `COc1ccc2c(c1)[C@@]1(C(=O)O)CCCC[C@H]1CC2` (relative stereo) cannot be ordered by melting point: 168 to 172 °C for the first, 171 to 173 °C for the second.

Compared with `O=[N+]([O-])c1cccc(-c2csc(NS(=O)(=O)c3ccc(Cl)c(Cl)c3)n2)c1`, `O=c1oc2ccc(Cl)cc2cc1S(=O)(=O)Cc1ccc(Cl)c([N+](=O)[O-])c1` is higher in melting point: 189 to 191 °C for the first, 272 to 275 °C for the second.

Compared with `Cc1nnc(-c2ccc3occ(-c4cnco4)c3c2)o1`, `OC1CSC(Oc2cncc(-c3cc4ccccc4o3)c2)C(O)C1O` (stereo unspecified) is higher in melting point: 184 to 185 °C for the first, 210 °C for the second.

First: CS(=O)(=O)Nc1cccc(N=C2NCCN2)c1
Second: CC1(c2cccc(NS(C)(=O)=O)c2)C2CN(C(=O)CCc3cccs3)CC21 (stereo unspecified)
The melting point of the first is higher: 229 to 230 °C for the first, 184 °C for the second.

Compared with `CCOC(=O)COC1CCN(C(=O)[C@H](C)CC(=O)c2ccc(C#N)cc2)CC1`, `CC(=O)N1CCC(CCCC(=O)c2ccc3c(c2)CCN(C(=O)C(F)(F)F)CC3)CC1` is higher in melting point: 97 to 98 °C for the first, 101 to 102 °C for the second.

First: NNc1cc2ccccc2cc1C(=O)O
Second: O=C(O)C(=O)c1ccc(OCCSc2ccc3ccccc3c2)cc1
The melting point of the first is higher: over 300 °C for the first, 121 to 123 °C for the second.

First: O=C1CC(c2cccc(-n3ccnc3)c2)=Nc2cc(OCCO)c(C#Cc3ccccc3)cc2N1
Second: CCCC(c1ccc(C(=O)c2ccccc2)cc1OCc1ccc(Br)cc1)n1ccnc1 (stereo unspecified)
The melting point of the first is higher: 224 to 227 °C for the first, 70 to 72 °C for the second.

Compared with `CNC(=O)c1ccc(C)c(-n2c(C)cc(OCc3ccc(F)cc3CNC(=O)Nc3cc(C(C)(C)C)nn3-c3ccc(O)c(Cl)c3)c(Cl)c2=O)c1`, `Cc1ccc(-c2c(CNC(=O)OC(C)(C)C)n(CC(C)C)c(=O)c3ccc(/C=C/C(N)=O)cc23)cc1` is lower in melting point: 177 to 180 °C for the first, 152 to 154 °C for the second.

`CC(C)NC(=O)c1ccc(N2CCC(N3C(=O)OCc4ccccc43)CC2)nc1` and `C[C@H]1CCCN(C(=O)[C@@H]2Cc3ccccc3N2c2ccc(=O)n(C)n2)C1` cannot be ordered by melting point: over 230 °C for the first, 231 to 233 °C for the second.

First: CCN(c1cccc2cc(C(N)=S)[nH]c12)S(=O)(=O)c1cccs1
Second: CN1C(=O)c2cccc(SCc3ccccc3)c2C1=O
The melting point of the first is lower: 163 °C for the first, 180 to 187 °C for the second.

First: CCOC(=O)c1c(O)cc(C(F)(F)Cl)nc1C(F)(F)F
Second: NNc1nc2ccc(OC(F)(F)F)cc2s1
The melting point of the first is lower: 56.5 to 58.5 °C for the first, 208 °C for the second.

First: COc1ccc(Cn2cnc3c(Cl)nc(F)nc32)cc1
Second: Cc1c(Cl)[nH]c(=O)n(Cc2ccccc2)c1=O
The melting point of the first is lower: 90 °C for the first, 202 to 205 °C for the second.

First: O=c1[nH]c(=O)n2c3c(cccc13)Sc1ccc(C(F)(F)F)cc1-2
Second: N#Cc1nn(-c2c(Cl)cc(C(F)(F)F)cc2Cl)c(SCc2ccccc2)c1S(=O)(=O)C(F)(F)F
The melting point of the first is higher: 278 to 280 °C for the first, 117 to 119 °C for the second.

First: O=C(O)CN(CC(=O)O)c1cc(OCCCCCCCCCCCCOc2ccccc2)cc(OCCCCCCCCCCCCOc2ccccc2)c1
Second: CCCCCCCC=CCCCCCCCCC(=O)OCC(O)COC(=O)CCCCCCCC=CCCCCCCCC (stereo unspecified)
The melting point of the first is higher: 72 to 74 °C for the first, 20 to 22 °C for the second.

Compared with `O=C1N(c2cc(Cl)cc(Cl)c2)C(=O)C2(Cc3ccc(Br)cc3)CC(F)(F)CN12` (stereo unspecified), `CC(C)c1nc(COC(N)=O)n(Cc2ccc[nH]c2=O)c1Sc1cc(Cl)cc(Cl)c1` is higher in melting point: 160 °C for the first, 214 °C for the second.

First: CC(C)Nc1ccc2c(c1)N1CCN=C1S2
Second: O=C1N(CO)OCCN1c1ccc(Cl)c(Cl)c1
The melting point of the first is lower: 128 °C for the first, 134 °C for the second.

First: CCOC(=O)c1nn(-c2ccc(Br)cc2)c(=O)c2c(N)scc12
Second: CCOC(=O)c1cc(-c2csc(-c3ccnc(N)c3)n2)c(=O)[nH]c1C
The melting point of the first is lower: 198 to 200 °C for the first, over 260 °C for the second.

First: Cc1ccc(Cl)c(-c2nn(C(C)(C)C(=O)N(C)C)cc2C)c1
Second: COc1c(C(=O)O)n(C)c(=O)c2ccc(Cl)cc12
The melting point of the first is lower: 106 to 108 °C for the first, 216 to 217 °C for the second.

First: CCCN(CCC)C(=O)Cc1ccc(OCc2ccccc2)c([N+](=O)[O-])c1
Second: N#Cc1c[nH]c2cc(F)c(OCc3ccccc3)cc2c1=O
The melting point of the first is lower: 67 to 68 °C for the first, over 250 °C for the second.

First: CSC(=C[N+](=O)[O-])NCCCCc1nccs1
Second: CC(C)N1CCN(c2ccc(C(=O)NCCCCCCCCCCCCO[N+](=O)[O-])cn2)CC1
The melting point of the first is higher: 75.5 to 76 °C for the first, 56 to 58 °C for the second.

First: CCOC(=O)Cc1sc(SCc2cc(O)nc(C)n2)nc1C
Second: CCCC1=C(C(=O)OCC)C(c2sccc2C)c2c[nH]nc2N1 (stereo unspecified)
The melting point of the first is higher: 131 to 132 °C for the first, 125 °C for the second.

Compared with `C=C(C)C(=O)Nc1ccc(O)c(-n2nc3ccc(Cl)cc3n2)c1`, `CC(=O)Nc1ccc(-c2ccc(C(O)CCC(=O)O)cc2)cc1Br` (stereo unspecified) is lower in melting point: 204 to 205 °C for the first, 125 to 126 °C for the second.

First: COC(=O)c1cc2cc(C(=O)c3cccc(C(C)C(=O)OC)c3)sc2s1 (stereo unspecified)
Second: Cc1ccccc1C(=O)N(C)c1ccc(C(=O)O)cc1
The melting point of the first is lower: 122 °C for the first, 187 to 190 °C for the second.

First: N#CCNC(=O)C(F)(F)F
Second: CC(C)OC(=O)COCc1cc(-c2nn(C)c(C(F)(F)F)c2Cl)c(F)cc1Cl
The melting point of the first is lower: 39 to 40 °C for the first, 55 °C for the second.

Compared with `Cn1c2ccccc2c(=NN=C2NCCS2)c2c(Cl)cccc21`, `Clc1[nH]c2ccccc2c1Sc1ccccc1` is lower in melting point: 206 to 207 °C for the first, 98 to 99 °C for the second.

First: N#Cc1c(O)nsc1S(=O)(=O)c1ccccc1
Second: CS(=O)(=O)CC(=O)Nc1ccccc1
The melting point of the first is higher: 163 to 164 °C for the first, 140 to 141 °C for the second.

First: C=CCOc1cc([N+](=O)[O-])ccc1Cl
Second: O=[N+]([O-])c1cc(I)cc(CF)c1
The melting point of the first is higher: 58 to 59.5 °C for the first, 50.5 to 51.5 °C for the second.

First: NCC(=O)N(O)Cc1ccccc1
Second: O=C(O)C1Cc2ccccc2CN1C(=O)CCS (stereo unspecified)
The melting point of the first is higher: 142 to 143 °C for the first, 55 to 58 °C for the second.

Going from `COc1ccc(-n2c(CC(=O)O)c(C(=O)O)c3cc(Oc4ccc(S(C)(=O)=O)cc4)ccc32)cc1` to `COc1ccc(C2CC(c3ccccc3OC)=NN2c2ccc(C(=O)O)cc2)cc1` (stereo unspecified), the melting point rises from 222 °C to 243 °C.

Compared with `CNC(=O)c1ccccc1Nc1nc(Nc2cc3c(cc2OC)CCN(CC(=O)N(C)C)CC3)ncc1Br`, `O=C(c1cc2cc3[nH]c(=O)oc3cc2[nH]1)N1CCC(OCc2ccccc2)CC1` is higher in melting point: 225 °C for the first, 258 to 261 °C for the second.

First: N#Cc1cnn2c(-c3ccc(Cl)cc3)ccnc12
Second: N#Cc1c(-c2ccccc2)cc(-c2ccccc2)nc1N
The melting point of the first is higher: 244 to 245 °C for the first, 170 to 174 °C for the second.

First: O=C(OCC(O)CO)C(=O)c1ccc(OCCOc2ccc3ccccc3c2)cc1 (stereo unspecified)
Second: N#CCCNC(=O)c1cccc(-c2cccc(Oc3ccc4c(c3)CCC4)n2)c1
The melting point of the first is higher: 124 to 125 °C for the first, 122 to 123 °C for the second.

Compared with `CCCn1c(COC)nc2c(N)nc3ccc(OCC4CCCN(C)C4)cc3c21` (stereo unspecified), `Cc1nc2c(N)nc3ccccc3c2n1CCCCOCC#Cc1ccccc1` is lower in melting point: 194 to 196 °C for the first, 109 to 110 °C for the second.

Compared with `S=C(NCN1CCOCC1)C(CN1CCOCC1)c1ccccn1` (stereo unspecified), `COC(=O)C(C)(C)Oc1ccc(C(=O)CN2CCN(c3ccncc3)CC2)cc1` is lower in melting point: 109 to 111 °C for the first, 88 to 90 °C for the second.

First: Cc1cccc2nc(O)n(C3CCC(=O)NC3=O)c(=O)c12 (stereo unspecified)
Second: Cc1cc2c(c3ccc(=O)[nH]c13)OC(C(O)CN=[N+]=[N-])C2 (stereo unspecified)
The melting point of the first is higher: 373 to 375 °C for the first, 173 to 175 °C for the second.

First: CS(=O)c1nccc(-c2nc(=O)c3ccccc3s2)n1 (stereo unspecified)
Second: c1ccc(CSc2ncnc3ccccc23)nc1
The melting point of the first is higher: 250 to 252 °C for the first, 64.9 to 66.2 °C for the second.

First: CCCn1c(=O)n(C2CCN(C(=O)OC(C)(C)C)CC2)c2ccccc21
Second: Cc1noc(-c2ccc([C@H]3CN(C(=O)OC(C)(C)C)CCO3)cc2)n1
The melting point of the first is lower: 102 to 105 °C for the first, 116 °C for the second.

Compared with `Cc1c(O)ncnc1C(F)F`, `Cc1nc(NC(=O)c2cnn3c(C(F)F)cc(-c4ccc(C(F)(F)F)cc4)nc23)sc1S(=O)(=O)N(CCO)CCO` is higher in melting point: 166 to 167 °C for the first, 191 °C for the second.

Compared with `Cc1ccc(S(=O)(=O)Cc2c(-c3cc([N+](=O)[O-])cc([N+](=O)[O-])c3)nn(C)c2O)cc1`, `Cc1ccc(C(=O)C#CCO)cc1` is lower in melting point: 192 to 194 °C for the first, 74 °C for the second.

Going from `O=C(NCC(=O)OCCC(F)=C(F)F)Nc1ccc(Cl)cc1Cl` to `N#Cc1ccc(NC(CNCC(=O)O)[N+](=O)[O-])cc1` (stereo unspecified), the melting point rises from 120 °C to 230 °C.

`O=C1NCC(c2ccc3[nH]c(-c4ccncc4)cc3c2)=NN1` and `O=c1[nH]c2ccc3c(c2[nH]c1=O)NCCC3` cannot be ordered by melting point: 313 to 316 °C for the first, over 300 °C for the second.

Compared with `Cc1c(C)c2c(c(C)c1OCc1ccccc1)C(CN1CCCC1CO)C(C)(C)O2` (mixture of isomers), `CC(C)(C)OC(=O)N1CCC[C@H]1c1nc2c(C(F)(F)F)cccc2c(O)c1C(=O)Nc1nccs1` is higher in melting point: 99 to 101 °C for the first, 215 °C for the second.

First: Nc1noc2cc3c(cc12)C1(CO3)C(=O)N(Cc2ccccn2)c2ccccc21 (stereo unspecified)
Second: N#CCCC1(C(N)=O)c2ccccc2-c2ccccc21
The melting point of the first is higher: 190 to 192 °C for the first, 148 to 152 °C for the second.

First: CN(C)C1N(C(=O)c2ccccc2)N=C2c3ccccc3SN21 (stereo unspecified)
Second: Cc1ccc(N2C(=O)NC(=O)C23CCN(C(=O)c2ccccc2)CC3)cc1
The melting point of the first is lower: 155 to 156 °C for the first, 242 to 244 °C for the second.

Going from `O=C(Nc1ccc(C(F)(F)F)cc1)C1=NN(c2ccccc2)CC1c1ccc(F)cc1` (stereo unspecified) to `N#CCCN1CCC2C(C1)c1ccccc1N2c1ccccc1` (stereo unspecified), the melting point falls from 184 °C to 108 °C.

First: C#Cc1ccc2c(c1)c(=O)c(C(=O)OCC)cn2CC
Second: CC(C)c1nn2ccccc2c1C(=O)C1CCCC1
The melting point of the first is higher: 185 to 187 °C for the first, 106 to 110 °C for the second.

Compared with `CC1=C(c2ccncc2Cl)SCC(=O)N1`, `CN1CCC(OC(c2ccccc2)c2nc3cccc(N)c3[nH]2)CC1` (stereo unspecified) is lower in melting point: 169 to 171 °C for the first, 96.7 °C for the second.

`CC(C)=CCC/C(C)=C/COCC(=O)c1cc(C(C)C)c(O)c(C(C)C)c1` showed a melting point of 70 to 71 °C.

Source: a melting point compilation (Tetko et al.; mined from patent text by program, amines drawn as free bases though some values may be those of a salt)
